Values of other authors, collected in US6620425B1, “Food supplements and methods comprising lipoic acid and creatine” (Muscletech Research and Development Inc., priority 1998, dated 2003).

Experiments:
[1] = insulin-sensitive individuals

Row | Compound | increase of the metabolic clearance rate of glucose (in diabetics) [%] | the body's utilization of blood sugar (in type II diabetics) | improvement of glucose tolerance [1]
1 | O=C(O)CCCCC1CCSS1 (stereo not drawn) [lipoic acid, 6,8-dithio octanoic acid] | 50 | significantly increase | 
2 | chromium |  |  | up to 50%
